Measured values taken from paper PMC4208094, “Optical control of insulin release using a photoswitchable sulfonylurea” (Nature Communications, 2014).

How the values were obtained:
SUR1 [1] = target: T1, SUR1 (Rattus norvegicus, UniProt Q09429); assay: [3H]-glibenclamide displacement in SUR1-expressing HEK293t cells under illumination; type: cell-based; design: gene Abcc8
Target sequence in this assay (Q09429 whole entry): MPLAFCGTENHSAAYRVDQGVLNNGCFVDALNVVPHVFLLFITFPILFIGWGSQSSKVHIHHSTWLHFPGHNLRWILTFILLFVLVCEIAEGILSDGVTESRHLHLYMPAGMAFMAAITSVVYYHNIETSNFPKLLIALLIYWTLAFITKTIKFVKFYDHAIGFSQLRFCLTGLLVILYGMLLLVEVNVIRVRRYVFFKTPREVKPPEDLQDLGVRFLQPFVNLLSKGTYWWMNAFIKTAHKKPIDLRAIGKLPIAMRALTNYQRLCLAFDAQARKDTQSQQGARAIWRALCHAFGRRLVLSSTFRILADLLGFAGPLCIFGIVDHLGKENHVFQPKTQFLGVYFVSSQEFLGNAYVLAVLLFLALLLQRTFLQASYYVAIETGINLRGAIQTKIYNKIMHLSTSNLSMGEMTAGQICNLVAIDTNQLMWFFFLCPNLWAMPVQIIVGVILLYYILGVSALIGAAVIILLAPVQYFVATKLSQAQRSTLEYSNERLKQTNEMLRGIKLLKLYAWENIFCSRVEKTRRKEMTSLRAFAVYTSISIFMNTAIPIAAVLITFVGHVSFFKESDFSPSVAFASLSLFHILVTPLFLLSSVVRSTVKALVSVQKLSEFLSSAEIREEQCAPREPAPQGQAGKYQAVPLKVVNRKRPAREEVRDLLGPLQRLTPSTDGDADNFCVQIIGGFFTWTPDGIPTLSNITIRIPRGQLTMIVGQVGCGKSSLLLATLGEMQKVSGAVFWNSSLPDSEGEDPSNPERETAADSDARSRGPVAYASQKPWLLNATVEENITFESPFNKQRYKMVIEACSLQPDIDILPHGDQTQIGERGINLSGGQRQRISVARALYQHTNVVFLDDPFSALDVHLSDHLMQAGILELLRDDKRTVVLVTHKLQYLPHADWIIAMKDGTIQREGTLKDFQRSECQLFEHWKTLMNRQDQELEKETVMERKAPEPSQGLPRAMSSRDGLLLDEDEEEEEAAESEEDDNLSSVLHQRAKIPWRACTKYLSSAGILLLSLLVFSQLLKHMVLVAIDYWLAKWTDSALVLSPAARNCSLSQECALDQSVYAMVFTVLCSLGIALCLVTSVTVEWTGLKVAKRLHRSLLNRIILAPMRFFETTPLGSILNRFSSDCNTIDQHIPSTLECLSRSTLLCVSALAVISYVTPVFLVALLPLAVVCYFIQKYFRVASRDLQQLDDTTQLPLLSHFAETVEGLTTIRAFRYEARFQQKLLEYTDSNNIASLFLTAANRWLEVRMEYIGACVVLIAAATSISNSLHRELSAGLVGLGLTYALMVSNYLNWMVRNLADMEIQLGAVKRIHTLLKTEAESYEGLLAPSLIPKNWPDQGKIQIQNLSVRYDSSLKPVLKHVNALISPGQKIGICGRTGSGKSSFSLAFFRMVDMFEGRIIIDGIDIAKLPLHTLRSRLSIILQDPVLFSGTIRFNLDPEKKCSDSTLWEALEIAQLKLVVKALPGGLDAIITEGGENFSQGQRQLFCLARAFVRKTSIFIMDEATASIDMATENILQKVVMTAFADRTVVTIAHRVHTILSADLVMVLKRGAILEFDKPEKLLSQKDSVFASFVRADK

SUR1 [2] = target: T1, SUR1; assay: whole-cell patch clamp of heterologous KATP channels, […] tolbutamide; type: cell-based; design: gene Abcc8; rat SUR1 (Genbank L40624) co-expressed with Kir6.2 in HEK293t cells; with Kir6.2
Target sequence in this assay (Q09429 whole entry): as above
Target sequence in this assay (Q61743 whole entry partner): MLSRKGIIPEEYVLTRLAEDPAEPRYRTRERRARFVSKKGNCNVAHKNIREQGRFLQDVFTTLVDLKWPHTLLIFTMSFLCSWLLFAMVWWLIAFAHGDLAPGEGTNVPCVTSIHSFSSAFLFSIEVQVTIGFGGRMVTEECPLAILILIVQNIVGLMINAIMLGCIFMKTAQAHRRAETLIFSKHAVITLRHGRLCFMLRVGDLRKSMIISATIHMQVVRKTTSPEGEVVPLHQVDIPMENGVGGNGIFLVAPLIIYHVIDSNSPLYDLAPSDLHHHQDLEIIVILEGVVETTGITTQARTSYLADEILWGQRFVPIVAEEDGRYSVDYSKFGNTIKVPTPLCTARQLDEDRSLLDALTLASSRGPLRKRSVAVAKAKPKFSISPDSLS

IC50 (SUR1 [1]) [µM] | SMILES | KATP current response (SUR1 [2])
14.8 | CCN(CC)c1ccc(/N=N\c2ccc(S(=O)(=O)NC(=O)NC3CCCCC3)cc2)cc1 [JB253, (Z)-N-(cyclohexylcarbamoyl)-4-((4-(diethylamino)phenyl)diazenyl)benzenesulfonamide] | 
 | CCCCNC(=O)NS(=O)(=O)c1ccc(C)cc1 [tolbutamide] | Tolbutamide and diazoxide-sensitive inward-rectifying K^+ currents could be recorded in transfected cells
